The text below walks through data of US20070043105A1, “Preventive for cerebal stroke recurrence” (ASTELLAS PHARMA INC., priority 2003, published 2007).

The test system of one assay is SHR-SP rats. Conditions: administration before attack; cited from earlier work.
The subject of assay [1] is stroke-prone spontaneously hypertensive rats (SHR-SP). Description: Cerebral stroke recurrence-accompanied neurologic symptom score in SHR-SP rats. The format is in vivo, rat. The text has this:
Regarding the neurologic symptom, both the fore-legs and both the hind legs of a test case are checked for the paralysis and the activity depression as the items of the neurologic symptoms thereof, and they are scored depending on the degree of the symptoms. Concretely, according to a reference (European Journal of Pharmacology, 192, 165-167, 1991), they are normal state (score 0), light symptom (score 1), middle symptom (score 2) and heavy symptom (score 3); and the final data of an individual are the total of the scores of these items. The maximum score is 15.
(§1) The dose was 3 and 30 mg/kg, and it was repeatedly orally administered once a day.
(§2) SHR-SP male rats (9-week age when bought, by Nippon SLC) were bred under a constant-temperature and constant-humidity condition. The feed was solid SP feed for breeding SHR-SP rats; and every rat was kept to freely drink tap water as automatically supplied thereto. The body weight of each rat was measured everyday, and the rats were checked for an cerebral stroke attack (Stroke, Vol. 20(9), pp. 1212-1218, 1989; Journal of Pharmacology & Experimental Therapeutics, Vol. 291(2), pp. 569-575, 1999). The cerebral stroke attack in the rats of this line is accompanied by neurologic symptoms such as paralysis or hemiplegia (European Journal of Pharmacology, Vol. 192 (1), pp. 165-167, 1991), and abnormal body weight change such as rapid body weight reduction. The abnormal body weight change may be considered to be caused by the deterred drinking and eating owing to the cerebral stroke attack (Brain Research, Vol. 452 (1-2), pp. 323-328, 1988; Stroke, Vol. 20(8), pp. 1089-1091, 1989; European Journal of Pharmacology, Vol. 192 (1), pp. 165-167, 1991).
The rats were checked for their neurologic symptoms on the day the first stroke occurred and 7 and 14 days later by the modified method of Yamamoto (Brain Research, Vol. 452(1-2), pp. 323-328, 1988; Stroke, Vol. 20(8), pp. 1089-1091, 1989; European Journal of Pharmacology, Vol. 192(1), pp. 165-167, 1991). Both the fore-legs and both the hind legs of the rats were checked for the paralysis and the activity depression as the items of the neurologic symptoms thereof. […] The final data of the individual rat are the total of the scores of these items. The maximum score is 15.
(§3) A Steel test was used to the neurologic symptom and recurrence scores, and a Log-rank test was applied to the survival rate.

Assay [2] shares this test system. The experiment in a line: Blood pressure, heart beat and total cholesterol level in SHR-SP rats after primary stroke attack. Conditions: administration groups (3 and 30 mg/kg/day), within 2 weeks after the primary cerebral stroke attack. The format is in vivo, rat.
Assay [3] relates to hypertension cases or CHD-having cases. Conditions: cited from earlier work.
A further assay has as its system eNOS. As to conditions: cited from earlier work.
Assay [4] concerns stroke-prone spontaneously hypertensive rats (SHR-SP). Description: Cerebral stroke recurrence score (daily body weight change) after primary stroke attack in SHR-SP rats. Conditions: vs control. The format is in vivo, rat. As to the method: as §1, §2, §3
Assay [5] has the same test system. The experiment in a line: Survival rate after onset of the stroke in SHR-SP rats. The format is in vivo, rat. Conditions: for survival rate: control 3/28 (10.7%). The method, then:
as §1, §2
Vehicle or atorvastatin was orally administered everyday, once a day from day of the first stroke to death.
as §3

The mark [6] stands for this setting: 3 mg/kg/day p.o., day 14 after the primary cerebral stroke attack, Steel test.
[7] abbreviates: 30 mg/kg/day p.o., day 7 after the primary cerebral stroke attack.
Setting [8] is: 30 mg/kg/day p.o., day 14 after the primary cerebral stroke attack, Steel test.

Structures are written as SMILES.

With `COCc1c(C(C)C)nc(C(C)C)c(/C=C/[C@@H](O)C[C@@H](O)CC(=O)O)c1-c1ccc(F)cc1` [serivastatin], in the assay with SHR-SP rats, the “prevention of cerebral stroke attack” value is “effective for prevention of cerebral stroke attack” and the survival rate result was “effective for increasing a survival rate”.

Consider `CC(C)c1c(C(=O)Nc2ccccc2)c(-c2ccccc2)c(-c2ccc(F)cc2)n1CC[C@@H](O)C[C@@H](O)CC(=O)O` [atorvastatin, (-)-(3R,5R)-7-[2-(4-fluorophenyl)-5-isopropyl-3-phenyl-4-phenylcarbamoyl-1H-pyrrol-1-yl]-3,5-dihydroxyheptanoic acid], for which the “neurologic symptoms (score)” value is on record as “improved” in assay [1] (3 mg/kg/day p.o., day 7 after the primary cerebral stroke attack); “significant improvement” in assay [1] (setting [6]); “improved” in assay [1] (setting [7]); “significant improvement” in assay [1] (setting [8]). In addition, the “level of neurologic symptoms reached” value in assay [1] (30 mg/kg administration group, day 14 after the primary cerebral stroke attack) is recorded as “restored nearly to the ordinary level”. The “diastolic pressure vs control group” value in assay [2] was “no significant difference”. The “heart beat vs control group” value in assay [2] is “no significant difference”. For the same compound, the “mean blood pressure vs control group” value in assay [2] was “no significant difference”. In addition, the “systolic pressure vs control group” value in assay [2] was “no significant difference”. In addition, the “total cholesterol level vs control group” value in assay [2] is listed as “no significant difference”. In addition, in assay [3], the “primary preventive effect for cerebral stroke” value is reported as “effective for preventing a primary cerebral stroke”. In addition, the eNOS activity result with eNOS is recorded as “increases eNOS activity”. Further, the figures for the “cerebral stroke recurrence symptoms (recurrence score)” value in assay [4] (setting [6]), in assay [4] (setting [7]) and in assay [4] (setting [8]) were “significant improvement”, “improved symptoms” and “significant improvement”, respectively. For the same compound, the survival rate was found to be 20.7% in assay [5] (3 mg/kg/day p.o., day 35 after the primary cerebral stroke attack (6/29)) and 33.3% in assay [5] (30 mg/kg/day p.o., day 35 after the primary cerebral stroke attack (8/24)). Further, the “improvement of survival rate vs control, Log-rank test” value in assay [5] (30 mg/kg/day p.o.) was “significant difference”.
